# In PMC8268181, “Pharmacokinetic evaluation of Chalcone derivatives with antimalarial activity in New Zealand White Rabbits” (BMC Research Notes, 2021):
# Entries after “also recorded” stand apart in the source; their conditions may differ. Like-named read-outs stand apart in the source and are kept apart here.
# Test: In vivo pharmacokinetic study, single intraperitoneal/oral dose, plasma concentration by RP-HPLC
# Parameters: species or system New Zealand White rabbits
# Settings: for Cmax / C0 / AUC(0-t) / half-life / Tmax: both sexes, New Zealand White, plasma; for Cmax: read-out: Cmax (peak plasma concentration); for C0: read-out: C0 (concentration of administrated drug at time zero); for AUC(0-t): linear trapezoidal method, read-out: AUC0–48 (area under the total plasma concentration–time curve); for half-life: read-out: t1/2 (elimination half-life) (converted); for Tmax: rabbit, read-out: tmax (time to reach the peak plasma concentration); for increased bioavailability as compared to in vitro concentration: in vitro concentration from ref 15; for bioavailability (in words): single dose, derivative 1 intraperitoneal, derivatives 2 and 3 oral
# From the text: The ten healthy adult New Zealand White rabbits weighing between 1.75–2.75 kg of either sex were procured from the institute Advanced Facility for Small Animal Research, PGIMER Chandigarh, after approval from the Institutional Animal Ethics Committee Ref. No. 69/IAEC/418 as per the Committee for the Purpose of Control and Supervision of Experiments on Animals (CPCSEA) guidelines. The animals were housed in polypropylene cages under standard laboratory conditions at controlled temperature (25 ± °C) and 12-h light/dark cycles until the end of the experimental period. Animals were given free access to diet and water in a room and were fasten for at least 12 h prior to experiment. To achieve meaningful statistical results, we used a minimally sufficient number of animals in all cases. A fifteen-days washout period was carried out, which allows animals to completely recover and clear off the administered derivatives.
# A total of ten healthy adult New Zealand White rabbits were divided into three groups; (i) derivative 1 treated group, (ii) derivative 2 treated group, and (iii) derivative 3 treated group. The whole experiment was performed in two batches with each batches containing n = 3 animals per group. The second batch with same groups were repeated after giving fifteen-days washout period which helps animals to recover and clear off previous administered derivatives. The three chalcone derivatives were administered at effective dose concentration [dose extrapolated from in vitro study, [15] as per OECD GLP compliance. A single dose of each chalcone derivatives 1, 2 & 3 (suspended in 0.5% carboxymethyl cellulose) were administered to each animal in the early morning at 7:00 am, which was noted as 0 h and then blood samples (1 mL) of animals were collected at specific time intervals of 0, 0.25 h, 0.5 h, 1 h, 2 h, 4 h, 6 h, 8 h, 12 h, 24 h, 36 h, 48 h from marginal ear vein in heparin containing vials. These derivatives were either administered orally through orogastric tube or intraperitoneally. All blood samples were collected from the marginal ear vein after topical anaesthesia with 4% lignocaine solution. No euthanasia procedure was required during the study, and after completion of experiments all animals were kept in rehabilitation centre according to CPCSEA guidelines, in the institute Advanced Facility for Small Animal Research, PGIMER, Chandigarh. Plasma samples for the determination of drug concentration were prepared for RP-HPLC analysis.
# Rabbit blood samples were accumulated in heparin contained dry evacuated tubes from marginal ear veins of healthy rabbits as per the standard operating procedure. These samples were centrifuged within 1 h of collection, for segregation of plasma at 1500 rpm for 10 min. The segregated plasma was preserved at […] till assay. Prior experimental analysis the deproteinization of the plasma samples was done in the mixture of methanol and water (90:10 v/v), then vortexed for at least 10–15 min, after while centrifuged for at least 15 min at 6000 rpm, and finally supernatants were pipette-out in a new vial. The supernatants were then spiked with the measured volume of diluted stock solutions of chalcone making up to final concentrations of 10–100 μg/mL.
# Each sample has been collected from rabbits at a different time interval and plasma was separated and either processed for assay procedure or stored at – 20 °C in deep freezer till experiment. On the day of the experiment, 100 µL of plasma from each vial was transferred to another and mixed with 100 µL of acetonitrile (HPLC analytical Grade). Then was kept for 5 min at room temperature and then centrifuged at 7000 rpm for 10 min. Supernatant was separated and reconstituted with the mobile phase and finally sterile filter with 0.22 µm membrane filter before the assay procedure.
# Chromatographic separation was achieved as mentioned earlier with slight modification. […]
# [1] = ip, derivative 1, single intraperitoneal dose 5.46 mg/1.5 kg rabbit, mean ± SEM, n = 6
# [2] = 4.85 mg/kg, derivative 2, single oral dose 7.28 mg/1.5 kg rabbit, mean ± SEM, n = 5
# [3] = derivative 2, single oral dose 7.28 mg/1.5 kg rabbit (4.85 mg/kg), mean ± SEM, n = 5
# [4] = 3.64 mg/kg, derivative 3, single oral dose 5.46 mg/1.5 kg rabbit, mean ± SEM, n = 6
structure (smiles),measurement,setting,value
"COc1ccc(/C=C/C(=O)c2cc(OC)ccc2OC)cc1 [Derivative 1, (E)-1-(2,5-Dimethoxyphenyl)-3-(4-methoxyphenyl)prop-2-en-1-one]",Cmax,"ip, derivative 1, single intraperitoneal dose 5.46 mg/1.5 kg rabbit (text: 3.84 mg/kg), mean ± SEM, n = 6",1960 ± 460 ng/mL
same,C0,[1],966 ± 25 ng/mL
same,AUC(0-t),[1],2.94 ± 0.83 µg·h/mL
same,half-life,[1],12.6 ± 2.09 h
same,Tmax,"ip, 5.46 mg/1.5 kg rabbit, derivative 1, single intraperitoneal dose 5.46 mg/1.5 kg rabbit (text: 3.84 mg/kg), mean ± SEM, n = 6",0.33 ± 0.05 h
same,increased bioavailability as compared to in vitro concentration,"compound 1, single intraperitoneal dose",three fold
same,first blood sampling time at which derivative was spotted in plasma,"derivative 1, after IP administration",15 min
same,mean CL,"derivative 1, single 3.84 mg/kg intraperitoneal dose",0.28 ± 0.08 L/h
same,Vd (volume of distribution),"derivative 1, single intraperitoneal dose 5.46 mg/1.5 kg rabbit, mean ± SEM, n = 6",7.31 ± 0.29 L
same,bioavailability (in words),,very low bioavailability
"COc1ccc(/C=C/C(=O)c2cc(OC)c(OC)c(OC)c2)cc1 [Derivative 2, (E)-(3,4,5-Trimethoxyphenyl)-3-(4-methoxyphenyl)prop-2-en-1-one]",C0,[2],986 ± 4 ng/mL
same,AUC(0-t),[2],3760 ± 739 µg·h/mL
same,half-life,[2],93.3 ± 32.6 h
same,Tmax,"po, 4.85 mg/kg, derivative 2, single oral dose 7.28 mg/1.5 kg rabbit (4.85 mg/kg), mean ± SEM, n = 5",3.84 h
same,Cmax,[3],69900 ± 5490 ng/mL
same,increased bioavailability as compared to in vitro concentration,"compound 2, single oral dose",tenfold
same,mean CL,"derivative 2, single 4.85 mg/kg oral dose",0.15 ± 0.05 L/h
same,systemic exposure (in words),"derivative 2, single oral administration, compared to other two chalcone derivatives",comparatively better systemic exposure
same,time the peak concentration remained constant,"derivative 2, single oral dose 4.85 mg/kg",3 to 4 h
same,tmax (time to reach the peak plasma concentration),[3],3.4 ± 0.79 h
same,Vd (volume of distribution),"derivative 2, single oral dose 7.28 mg/1.5 kg rabbit, mean ± SEM, n = 5",10.72 ± 0.66 L
"COc1ccc(/C=C/C(=O)c2cc(OC)c(OC)c(OC)c2)cc1OC [Derivative 3, (E)-1-(3,4,5-Trimethoxyphenyl)-3-(3,4-dimethoxyphenyl)prop-2-en-1-one]",C0,[4],944 ± 7 ng/mL
same,AUC(0-t),[4],14.2 ± 3.78 µg·h/mL
same,half-life,[4],13.3 ± 1.67 h
same,Tmax,"po, 3.64 mg/kg, derivative 3, single oral dose 5.46 mg/1.5 kg rabbit (3.64 mg/kg), mean ± SEM, n = 6",2.83 ± 0.87 h
same,Cmax,"derivative 3, single oral dose 5.46 mg/1.5 kg rabbit (3.64 mg/kg), mean ± SEM, n = 6",3740 ± 1640 ng/mL
same,increased bioavailability as compared to in vitro concentration,"compound 3, single oral dose",25 fold
same,mean CL,"derivative 3, single 3.64 mg/kg oral dose",0.53 ± 0.10 L/h
same,kinetics of metabolism / elimination phase (in words),"derivative 3, single oral dose",first order kinetics
same,Vd (volume of distribution),"derivative 3, single oral dose 5.46 mg/1.5 kg rabbit, mean ± SEM, n = 6",9.12 ± 0.73 L
same,bioavailability (in words),,poor bioavailability; also recorded: very low bioavailability
